Experimental data: US4593104A, “2-halo-N-(azole-1-yl-methyl)-substituted acetanilides” (BASF Aktiengesellschaft, priority 1976, dated 1986)

Tests used:
Assay in all cases: preemergence treatment in the greenhouse, % damage
Alopec. myosur. = assay type: in vivo
Source text: (§1) The vessels employed were plastic flowerpots having a volume of 300 cm^3; the substrate was a sandy loam containing about 1.5% humus. The seeds of the test plants (see Table 1) were sown shallow, and separated according to species. In the case of Cyperus esculentus, pregerminated tubers were planted. In the preemergence treatment, the active ingredients were then immediately applied to the surface of the soil. They were suspended or emulsified in water as the vehicle, and sprayed through atomizing nozzles. After the agents had been applied, the vessels were lightly sprinkler-irrigated to set germination and growth going, and to activate the chemical agents. The vessels were then covered with transparent plastic hoods until the plants had taken root. This cover ensured uniform germination of the test plants (to the extent that this was not impaired by the chemicals), and prevented readily volatile substances from evaporating.
(§2) For postemergence treatment, the plants were first grown to a height of from 3 to 10 cm, depending on their habit, before treated. Hoods were not placed on the pots. The experiments were set up in the greenhouse, hotter areas (25° to 40° C.) being preferred for heat-loving species, and 15° to 30° C. for plants from moderate climates. The experiments were carried out for from 4 to 6 weeks. During this period the plants were tended and their reaction to the various treatments was assessed. The following tables contain the substances investigated, the application rates in kg/ha of active ingredient, and the test plant species. Assessments were made on a 0 to 100 scale, 0 denoting no damage or normal emergence, and 100 denoting no emergence or complete destruction of at least the visible plant parts.

Echin. c.g. = assay type: in vivo
Source text: as §1, §2

Setaria spp. = assay type: in vivo
Source text: as §1, §2

Bromus spp. = assay type: in vivo
Source text: as §1, §2

Matric. spp. = assay type: in vivo
Source text: as §1, §2

Beta vulg. = assay type: in vivo, Beta vulgaris
Source text: as §1, §2

Glyc. max = assay type: in vivo, Glycine max
Source text: as §1, §2

Sorgh. halep. = assay type: in vivo
Source text: as §1, §2

Amar. retro. = assay type: in vivo
Source text: as §1, §2

Cyp. diff. = assay type: in vivo
Source text: as §1, §2

Zea mays = assay type: in vivo
Source text: as §1, §2

Sorgh. bicol. = assay type: in vivo, Sorghum bicolor
Source text: as §1, §2

Solanum nigrum = assay type: in vivo
Source text: as §1, §2

Euph. gen. = assay type: in vivo
Source text: as §1, §2

Gossyp. hirs. = assay type: in vivo, Gosspyium hirsutum
Source text: as §1, §2

Cyper. escul. = assay type: in vivo, Cyperus esculentus
Source text: as §1, §2

| Compound | % damage (Alopec. myosur.; 1.0 kg/ha) [%] | % damage (Echin. c.g.; 1.0 kg/ha) [%] | % damage (Setaria spp.; 1.0 kg/ha) [%] | % damage (Alopec. myosur.; 2.0 kg/ha) [%] | % damage (Echin. c.g.; 2.0 kg/ha) [%] | % damage (Setaria spp.; 2.0 kg/ha) [%] | % damage (Sorgh. halep.; 2.0 kg/ha) [%] | % damage (Amar. retro.; 2.0 kg/ha) [%] | % damage (Cyp. diff.; 2.0 kg/ha) [%] | other results |
| --- | --- | --- | --- | --- | --- | --- | --- | --- | --- | --- |
| Cc1cnn(CN(C(=O)CCl)c2c(C)cccc2C)c1 | 95 | 98 | 100 | – | – | – | – | – | – | % damage (Alopec. myosur.; 0.5 kg/ha): 90%; % damage (Echin. c.g.; 0.5 kg/ha): 98%; % damage (Setaria spp.; 0.5 kg/ha): 92%; % damage (Bromus spp.; 0.5 kg/ha): 95%; % damage (Bromus spp.; 1.0 kg/ha): 95%; % damage (Matric. spp.; 0.5 kg/ha): 100%; % damage (Matric. spp.; 1.0 kg/ha): 100%; % damage (Beta vulg.; 0.5 kg/ha): 0%; % damage (Beta vulg.; 1.0 kg/ha): 0%; % damage (Glyc. max; 0.5 kg/ha): 0%; % damage (Glyc. max; 1.0 kg/ha): 10% |
| Cc1cccc(C)c1N(Cn1cc(Cl)cn1)C(=O)CCl | 95 | 100 | 95 | 100 | 100 | 100 | – | – | – | % damage (Bromus spp.; 1.0 kg/ha): 92%; % damage (Bromus spp.; 2.0 kg/ha): 95%; % damage (Matric. spp.; 1.0 kg/ha): 75%; % damage (Matric. spp.; 2.0 kg/ha): 80%; % damage (Beta vulg.; 1.0 kg/ha): 3%; % damage (Beta vulg.; 2.0 kg/ha): 13%; % damage (Glyc. max; 1.0 kg/ha): 5%; % damage (Glyc. max; 2.0 kg/ha): 20% |
| CCc1cccc(C)c1N(Cn1cc(Cl)cn1)C(=O)CCl | 90 | 100 | 85 | – | – | – | – | – | – | % damage (Bromus spp.; 1.0 kg/ha): 90%; % damage (Matric. spp.; 1.0 kg/ha): 60%; % damage (Beta vulg.; 1.0 kg/ha): 0% |
| CCc1cccc(C)c1N(Cn1cc(C)cn1)C(=O)CCl | – | – | – | – | – | – | – | – | – | % damage (Echin. c.g.; 3.0 kg/ha): 100% |
| CC(C)c1ccccc1N(Cn1cccn1)C(=O)CCl [Compound 4] | – | – | – | 95 | 100 | 90 | 65 | 95 | 90 | – |
| CCc1cccc(CC)c1N(Cn1cccn1)C(=O)CCl [Compound 8] | – | – | – | – | – | – | – | – | – | % damage (Sorgh. halep.; 0.25 kg/ha): 85%; % damage (Bromus spp.; 0.25 kg/ha): 100%; % damage (Amar. retro.; 0.25 kg/ha): 95% |
| Cc1cccc(C(C)C)c1N(Cn1cccn1)C(=O)CCl [Compound 9] | – | – | – | 100 | 100 | 100 | 90 | 100 | 100 | – |
| CC(C)c1cccc(C(C)C)c1N(Cn1cccn1)C(=O)CCl [Compound 11] | – | – | – | 90 | 100 | 80 | 70 | 90 | 100 | – |
| Cc1cc(C)c(N(Cn2cccn2)C(=O)CCl)c(C)c1 [Compound 13] | – | – | – | 80 | 100 | 90 | 80 | 100 | 90 | – |
| Cc1cccc(N(Cn2cccn2)C(=O)CCl)c1C [Compound 17] | – | – | – | 50 | 100 | 90 | 75 | 90 | 100 | – |
| Cc1ccc(Cl)cc1N(Cn1cccn1)C(=O)CCl [Compound 24] | – | – | – | 100 | – | 85 | – | 95 | – | % damage (Zea mays; 2.0 kg/ha): 0%; % damage (Sorgh. bicol.; 2.0 kg/ha): 10%; % damage (Beta vulg.; 2.0 kg/ha): 60%; % damage (Glyc. max; 2.0 kg/ha): 10% |
| Cc1cc(C)n(CN(C(=O)CCl)c2ccccc2)n1 [Compound 34] | – | 90 | 80 | – | 90 | 95 | – | 100 | – | % damage (Zea mays; 1.0 kg/ha): 0%; % damage (Zea mays; 2.0 kg/ha): 0%; % damage (Bromus spp.; 1.0 kg/ha): 95%; % damage (Bromus spp.; 2.0 kg/ha): 95%; % damage (Amar. retro.; 1.0 kg/ha): 100%; % damage (Sorgh. bicol.; 1.0 kg/ha): 0%; % damage (Sorgh. bicol.; 2.0 kg/ha): 10%; % damage (Glyc. max; 1.0 kg/ha): 0%; % damage (Glyc. max; 2.0 kg/ha): 0% |
| CCc1ccccc1N(Cn1nc(C)cc1C)C(=O)CCl [Compound 36] | 100 | 95 | 95 | – | – | – | – | – | – | % damage (Alopec. myosur.; 0.5 kg/ha): 90%; % damage (Echin. c.g.; 0.5 kg/ha): 80%; % damage (Sorgh. halep.; 0.5 kg/ha): 40%; % damage (Sorgh. halep.; 1.0 kg/ha): 40%; % damage (Setaria spp.; 0.5 kg/ha): 90%; % damage (Amar. retro.; 0.5 kg/ha): 95%; % damage (Amar. retro.; 1.0 kg/ha): 95% |
| Cc1cc(C)n(CN(C(=O)CCl)c2ccccc2C(C)C)n1 [Compound 37] | 30 | 100 | 100 | – | – | – | – | – | – | % damage (Sorgh. halep.; 1.0 kg/ha): 80%; % damage (Amar. retro.; 1.0 kg/ha): 100%; % damage (Cyp. diff.; 1.0 kg/ha): 100% |
| Cc1cc(C)n(CN(C(=O)CCl)c2c(C)cccc2C(C)C)n1 [Compound 42] | 95 | 100 | 100 | – | – | – | – | – | – | % damage (Sorgh. halep.; 1.0 kg/ha): 90%; % damage (Amar. retro.; 1.0 kg/ha): 100%; % damage (Cyp. diff.; 1.0 kg/ha): 100% |
| Cc1cc(C)n(CN(C(=O)CCl)c2c(C(C)C)cccc2C(C)C)n1 [Compound 44] | – | – | – | 80 | 90 | 90 | 40 | 80 | 100 | – |
| Cc1cc(C)c(N(Cn2nc(C)cc2C)C(=O)CCl)c(C)c1 [Compound 46] | 60 | 100 | 100 | – | – | – | – | – | – | % damage (Sorgh. halep.; 1.0 kg/ha): 80%; % damage (Amar. retro.; 1.0 kg/ha): 90%; % damage (Cyp. diff.; 1.0 kg/ha): 100% |
| Cc1cc(C)n(CN(C(=O)CCl)c2cccc(C)c2C)n1 [Compound 50] | 90 | 100 | 100 | – | – | – | – | – | – | % damage (Sorgh. halep.; 1.0 kg/ha): 70%; % damage (Amar. retro.; 1.0 kg/ha): 100%; % damage (Cyp. diff.; 1.0 kg/ha): 100% |
| Cc1ccc(C)c(N(Cn2nc(C)cc2C)C(=O)CCl)c1 [Compound 52] | – | – | – | 60 | 95 | 90 | 60 | 100 | 100 | – |
| Cc1ccn(CN(C(=O)CCl)c2c(C)cccc2C)n1 [Compound 67] | – | – | – | – | – | – | – | – | – | % damage (Sorgh. halep.; 0.25 kg/ha): 95%; % damage (Bromus spp.; 0.25 kg/ha): 100%; % damage (Amar. retro.; 0.25 kg/ha): 100% |
| CCc1ccccc1N(Cn1ccc(C)n1)C(=O)CCl [Compound 69] | – | – | – | – | – | – | – | – | – | % damage (Alopec. myosur.; 0.5 kg/ha): 100%; % damage (Zea mays; 0.5 kg/ha): 0%; % damage (Setaria spp.; 0.5 kg/ha): 80%; % damage (Amar. retro.; 0.5 kg/ha): 95%; % damage (Sorgh. bicol.; 0.5 kg/ha): 10%; % damage (Beta vulg.; 0.5 kg/ha): 20%; % damage (Glyc. max; 0.5 kg/ha): 20% |
| CCc1cccc(CC)c1N(Cn1ccc(C)n1)C(=O)CCl [Compound 70] | – | – | – | – | – | – | – | – | – | % damage (Sorgh. halep.; 0.25 kg/ha): 75%; % damage (Bromus spp.; 0.25 kg/ha): 100%; % damage (Amar. retro.; 0.25 kg/ha): 100% |
| Cc1ccn(CN(C(=O)CCl)c2ccccc2C(C)C)n1 [Compound 72] | 100 | – | 90 | 100 | – | 95 | – | 95 | – | % damage (Zea mays; 1.0 kg/ha): 0%; % damage (Zea mays; 2.0 kg/ha): 10%; % damage (Amar. retro.; 1.0 kg/ha): 95%; % damage (Sorgh. bicol.; 1.0 kg/ha): 20%; % damage (Sorgh. bicol.; 2.0 kg/ha): 40%; % damage (Beta vulg.; 1.0 kg/ha): 10%; % damage (Beta vulg.; 2.0 kg/ha): 10%; % damage (Glyc. max; 1.0 kg/ha): 10%; % damage (Glyc. max; 2.0 kg/ha): 20% |
| CCc1cccc(CC)c1N(Cn1nc(C)c(Cl)c1C)C(=O)CCl [Compound 108] | – | – | – | 70 | 100 | 90 | 60 | 100 | 100 | – |
| CCc1cccc(CC)c1N(Cn1cncn1)C(=O)CCl [Compound 130] | – | 100 | 95 | – | 100 | 100 | – | 100 | – | % damage (Solanum nigrum; 0.5 kg/ha): 100%; % damage (Solanum nigrum; 1.0 kg/ha): 100%; % damage (Solanum nigrum; 2.0 kg/ha): 100%; % damage (Echin. c.g.; 0.5 kg/ha): 95%; % damage (Euph. gen.; 0.5 kg/ha): 60%; % damage (Euph. gen.; 1.0 kg/ha): 60%; % damage (Euph. gen.; 2.0 kg/ha): 100%; % damage (Setaria spp.; 0.5 kg/ha): 85%; % damage (Amar. retro.; 0.5 kg/ha): 95%; % damage (Amar. retro.; 1.0 kg/ha): 100%; % damage (Gossyp. hirs.; 0.5 kg/ha): 20%; % damage (Gossyp. hirs.; 1.0 kg/ha): 30%; % damage (Gossyp. hirs.; 2.0 kg/ha): 30%; % damage (Cyper. escul.; 0.5 kg/ha): 40%; % damage (Cyper. escul.; 1.0 kg/ha): 70%; % damage (Cyper. escul.; 2.0 kg/ha): 80%; % damage (Glyc. max; 0.5 kg/ha): 20%; % damage (Glyc. max; 1.0 kg/ha): 20%; % damage (Glyc. max; 2.0 kg/ha): 20% |
| Cc1cccc(C(C)C)c1N(Cn1cncn1)C(=O)CCl [Compound 131] | – | – | – | 70 | 100 | 100 | 80 | 80 | 100 | – |
| Cc1cccc(N(Cn2cncn2)C(=O)CCl)c1C [Compound 139] | – | – | – | 70 | 90 | 30 | 50 | 40 | 90 | – |
| CCc1cccc(CC)c1N(Cn1nc(C)nc1C)C(=O)CCl [Compound 162] | – | – | – | 95 | 100 | 100 | 95 | 100 | 100 | – |
